# Assay results from US9265735B2, “Methods for screening to identify therapeutic agents for Alzheimer's disease and use thereof” (New York University, priority 2010, dated 2016).
# Entries after “also recorded” stand apart in the source; their conditions may differ.
# Tests used:
# [1] = in vivo; cited from earlier work
# [2] = test system: Cat B; assay: Cat B activity by MagicRed-Cathepsin B (MR-Cat B) in PS1KO cells; assay type: cell-based, Murine; conditions: PS1KO cells; 200 μM, 6 h
# Description: Immunocytochemistry was performed as previously described (Yu et al., 2005). Secondary antibodies used were from Invitrogen: goat anti-mouse/rabbit/rat Alexa Fluor 488 and goat anti-mouse/rabbit/rat Alexa Fluor 568. Cells were imaged using a plan-Apochromat 40× or 100×/1.4 oil DIC objective lens on the laser scanning confocal microscope, LSM 510 META, with LSM software v3.5 (Carl Zeiss MicroImaging Inc). Images were analysed using ImageJ program (NIH). Organelles with low internal pH were labeled by LysoTracker DND-99 dye (Invitrogen) at the final 100 nM for 30 min. Following 4% PFA fixation, cells were further counter stained with Cat D, LMAP1, or LC3 antibody for 4 hrs then visualized with Alexa Fluor 488 conjugated secondary antibody. Active Cat D was labeled by adding Bodipy-FL-pepstatin A directly to the medium at a final concentration of 1 μg/ml for 1 hr. Following 4% PFA fixation, cells were counter stained with Cat D antibody for 4 hrs and visualized with Alexa Fluor 568 conjugated secondary antibody. […] Cells were incubated for 30 min with MR-Cathepsin B prior to mounting them under the confocal microscope. […]
# Active Cat D was labeled by adding Bodipy-FL-pepstatin A directly to the medium at a final concentration of 1 mg/ml for 1 hr. […] Cat B staining with MagicRed-Cathepsin B was also measured fluorometrically with a Wallac Victor 2 fluorometer.
# [3] = test system: LC3 puncta; assay: LC3 puncta by LC3 immunocytochemistry in PS1KO cells; assay type: cell-based, Murine; conditions: 200 μM, 6 h
# Description: Immunocytochemistry was performed as previously described (Yu et al., 2005). Secondary antibodies used were from Invitrogen: goat anti-mouse/rabbit/rat Alexa Fluor 488 and goat anti-mouse/rabbit/rat Alexa Fluor 568. Cells were imaged using a plan-Apochromat 40× or 100×/1.4 oil DIC objective lens on the laser scanning confocal microscope, LSM 510 META, with LSM software v3.5 (Carl Zeiss MicroImaging Inc). Images were analysed using ImageJ program (NIH). Organelles with low internal pH were labeled by LysoTracker DND-99 dye (Invitrogen) at the final 100 nM for 30 min. Following 4% PFA fixation, cells were further counter stained with Cat D, LMAP1, or LC3 antibody for 4 hrs then visualized with Alexa Fluor 488 conjugated secondary antibody. Active Cat D was labeled by adding Bodipy-FL-pepstatin A directly to the medium at a final concentration of 1 μg/ml for 1 hr. Following 4% PFA fixation, cells were counter stained with Cat D antibody for 4 hrs and visualized with Alexa Fluor 568 conjugated secondary antibody. […] Cells were incubated for 30 min with MR-Cathepsin B prior to mounting them under the confocal microscope. To block v-ATPase proton pump activity, ammonium chloride (NH4Cl) was added directly to the medium at a final concentration of 20 mM for 6 hrs prior to LysoTracker addition.
# [4] = test system: p62; assay: p62 accumulation in PS1KO cells; assay type: cell-based, Murine; conditions: 200 μM, 6 h
# Description: Immunoblotting was performed as previously described (Yu et al., 2005). Briefly, cells used for Western blot analysis were lysed in buffer containing 50 mM Tris (pH=7.4), 150 mM NaCl, 1 mM EDTA, 1 mM EGTA, 1% Triton X-100 and 0.5% Tween-20 with protease and phosphatase inhibitors. Following electrophoresis on 4-20% gradient gel (Invitrogen), proteins were transferred onto 0.45 μm PVDF membranes (Millipore) and the membrane was incubated overnight in primary antibody then incubated with HRP conjugated secondary antibody. The blot was developed by ECL-kit (GE Healthcare). To assess v-ATPase V0a subunit glycosylation, lysate from WT and PS1KO cells were either treated for 24 hrs at 37° C. with PNGase F or O-glycanase using an enzymatic deglycosylation kit according to the manufacturer's instructions (PROzyme) or with Endo H (New England Biolabs) for 24 hrs at 37° C. Total glycoproteins were isolated using Glycoprotein Isolation Kit, ConA according to the manufacturer's instructions (Thermo Scientific).
# [5] = test system: tau; conditions: rats; bilateral injection into the hippocampus; cited from earlier work
# [6] = test system: PS1KO blastocysts; assay: Lysosomal pH measurement with Dextran conjugated Lysosensor Yellow/Blue in PS1KO cells; assay type: cell-based, Murine; conditions: PS1KO cells
# Description: For results presented in Example 1, quantification of lysosomal pH was determined using Dextran conjugated Lysosensor Yellow/Blue DND-160 (Invitrogen) as follows. Wild Type and PS1KO blastocysts were grown in High Glucose DMEM+15% FBS with antibiotics to ˜90% confluency. Cells were then trypsinized, harvested (1×10^6 cells/ml) and loaded with 1 mg/ml of Lysosensor-dextran for 1 hour at 37° C. with 5% CO2. The cells were then washed 3× in HBSS and aliquoted at […] into a black 96-well microplate. pH calibration was performed according to the protocol established by Diwu et al (Diwu et al., (1999). Chem Biol 6, 411-418). Briefly, wild type and PS1KO blastocysts were treated with 10 μM monensin and 10 uM nigericin in MES buffer (5 mM NaCl, 115 mM KCL, 1.3 mM MgSO4, 25 mM MES), with the pH adjusted to a range from 3.5-7.0. The samples were read in a Wallac Victor 2 fluorimeter (Perkin Elmer) with excitation at 355 nm. The ratio of emission 440/535 nm was then calculated for each sample. The pH values were determined from the linear standard curve generated via the pH calibration samples.
# In a more particular embodiment, quantification of lysosomal pH is determined using Dextran conjugated Lysosensor Yellow/Blue (Invitrogen) as follows. 3000 Wild Type and PS1KO blastocysts were seeded in multiple wells of black, clear bottom tissue culture treated 96 well dish and grown in High Glucose DMEM+15% FBS with antibiotics to ˜90% confluency (˜24 hours). 2 ul of 0.5 mg/ml lysosensor-dextran (1:100 dilution of a 5 mg/ml stock) was added and incubated for 1 hour at 37° C. with 5% CO2. The cells were then washed 3× in HBSS. See also methods and results set forth herein below in Example 2. This modified protocol represents an optimized protocol for the purposes set forth herein.
# Quantification of lysosomal pH was determined using Dextran conjugated Lysosensor Yellow/Blue (Invitrogen). 3000 Wild Type and PS1KO blastocysts were seeded in multiple wells of black, clear bottom tissue culture treated 96 well dish and grown in High Glucose DMEM+15% FBS with antibiotics to ˜90% confluency (˜24 hours). 2 ul of 0.5 mg/ml lysosensor-dextran (1:100 dilution of a 5 mg/ml stock) was added and incubated for 1 hour at 37° C. with 5% CO2. The cells were then washed 3× in HBSS.
# Performed according to the protocol established by Diwu et al (supra). Briefly, wild type and PS1KO blastocysts were treated with 10 uM monensin and 10 uM nigericin in MES buffer (5 mM NaCl, 115 mM KCL, 1.3 mM MgSO4, 25 mM MES), with the pH adjusted to a range from 3.5-7.0 for 7-10 min prior to lysosensor addition (the additional hour in the buffer seems to have no effect), these cells are not washed in HBSS since permeabilization with ionophores makes them susceptible to detachment.
# The samples were read in a Wallac Victor 2 fluorimeter (Perkin Elmer) with excitation at 355 nm. The ratio of emission 440 nm/535 nm was then calculated for each sample. pH values were determined from the linear std curve generated via the pH calibration samples.
# [7] = test system: autophagic vacuoles (AVs); assay: AV accumulation by EM morphometry in PS1KO cells; assay type: cell-based, Murine; conditions: 200 μM, 6 h
# Description: Following treatments, cells were prepared for EM as previously described and AVs, identified using previous morphological criteria (Yu et al., 2005), were classified and counted on electron micrographs (7900× print magnification) of 20 EM images from different lines in each experimental group.
smiles,measurement,setting,value
CC(C)NCC(O)c1ccc(O)c(O)c1 (centres unmarked) [isoproterenol],crossing of the blood brain barrier (BBB),[1],cross the blood brain barrier
same,Cat B activity as measured by MR-Cat B,[2],restored to WT levels
same,LC3 puncta accumulation determined by LC3 ICC,[3],reversed
same,p62 accumulation,[4],reversed
same,tau phosphorylation and spatial memory,[5],induces Alzheimer-like hyperphosphorylation of tau and spatial memory defects
same,lysosomal pH,"[6]; 200 μM, 6 h",restored to WT levels
same,effect on elevated lysosomal pH in PS1KO cells,[6]; FIG. 10A/G,normal levels or even hyperacidic levels; also recorded: restored to WT levels
same,AV accumulation by EM morphometry (total area occupied by AVs per EM field),[7],reversed
